Test results reported in patent US9696323B2, “Biomarkers for chagas disease related cardiomyopathy” (THE BOARD OF REGENTS OF THE UNIVERSITY OF TEXAS SYSTEM, priority 2013, dated 2017).

What was measured:
[1] = tested on: T. cruzi; conditions: infected rats; BZ parasite-induced, PBN oxidative stress-induced (Wen et al. 2006, 2010); cited from earlier work
[2] = tested on: T. cruzi; assay: 2D-GE plasma proteome profile (differential protein expression) of T. cruzi-infected rats treated with PBN and/or BZ; format: in vivo, rat; conditions: plasma, RCP/RCB/RCPB groups (chronic infection)
Source text: Certain embodiments include biomarkers identified in a previous study. Parasite persistence and oxidative damage in the heart are known to be of pathological significance during Chagas disease (Zacks et al., (2005) An Acad Bras Cienc, 77, 695-715; Gupta et al., (2009) Interdiscip Perspect Infect Dis, 2009, 190354). […] In the previous study the inventors identified 92 proteins that were differentially expressed or oxidized in chagasic plasma. Functional analysis allocated a majority of these proteins to inflammation/immunity and lipid metabolism categories, and to molecular pathways associated with cardiovascular dysfunction, e.g., myocardial infarction, hypertrophy, and fibrosis, and pulmonary embolism and hypertension. Some proteins in chagasic rats treated with PBN and/or BZ were allocated to curative pathways (immune regulation and cardiac remodeling). The 2D-GE results were validated by Western blotting. […] Increased plasma levels of GSN, MYL2, and VIM were directly correlated with the severity of cardiac disease in human chagasic patients. […] These findings have utility in diagnosing disease severity and designing suitable therapy for management of human chagasic patients.
Ingenuity Pathway Analysis (IPA) is a highly curated and comprehensive software used for the integration of proteins into networks and pathways with biological meaning (Thomas and Bonchev, (2010). Hum Genomics, 4, 353-360). Network analysis of the plasma proteome profile of chagasic rats identified four major sub-networks linked to host response to T. cruzi infection and disease development (Table V). The maximal numbers of the differentially expressed plasma proteins (19 proteins) in chagasic rats were associated with antigen presentation and inflammatory response category (Table V) and indicators of persistent inflammation, known to be of pathological significance in Chagas disease (Dhiman et al., (2009) Clinical and Vaccine Immunology, 16, 660-666; Tanowitz et al., (2009) Prog Cardiovasc Dis, 51, 524-539; Junqueira et al., (2010) Expert Rev Mol Med, 12, e29). Following functional analysis of the inflammation-associated proteins, 12 proteins (APOA1, APOE, C3, CFB, CFH, FGB, GSN, KRT10, PLG, SCG2, SERPINA1, and SERPINC1) were identified as being involved in immune cell trafficking and cell movement of leukocytes, granulocytes, phagocytes, neutrophils, and dendritic and antigen presenting cells. Some of the differentially expressed proteins in inflammation category were associated with activation (APOE, C3, CFH, GC and PLG), chemotaxis (C3, SCG2, SERPINA1, SERPINC1), and infiltration of leukocytes (APOA1, APOE, C3, PLG, KRT10) and neutrophils (C3, CFB, CFH, PLG). Up regulation of APOE, APOA1, APOH, GC and PLG in chagasic plasma was indicative of activation, binding and accumulation of macrophages in the disease state. Of the 19 differentially expressed inflammation-associated proteins, 11 proteins (APOE, C3, CFB, CFH, GSN, KRT10, SCG2, SERPINA1, SERPINC1, GC, and PLG) were carbonylated in chagasic plasma. […] Other proteins (APOE, C3, KRT3, and SCG2) were exposed to oxidation due to T. cruzi-induced, acute oxidative stress, but were normalized in expression and oxidation during the chronic phase.
Seventeen of the differentially expressed proteins in chagasic plasma, i.e., AFM, C4BPA, CACNA1D, DLGAP2, GC, KNG1, MUG1, MYLPF, MY05A, MY05B, PRPH, PZP, RAI14, and SCG2, were allotted to the lipid metabolism/molecular transport/small molecule biochemistry category (Table V) and functionally linked by IPA network analysis to lipid, fatty acid, and carbohydrate metabolism. A majority of the proteins in this category, i.e., ALB, APOA1, APOA4, APOE, APOH, C3, GC, GNAQ, MY05A, PLG, SCD2, SERPINA1, SERPINC1 and VIM, were linked to the synthesis, metabolism, transport, and modification of lipids and fatty acids, and to uptake and release or efflux of lipids, eicosanoids, and cholesterol. […]

[3] = tested on: T. cruzi; assay: Oxidative modification (carbonylation) of plasma proteins in chagasic rats treated with PBN and/or BZ; format: in vivo, rat; conditions: infected rats, plasma proteins
Source text: Certain embodiments include biomarkers identified in a previous study. Parasite persistence and oxidative damage in the heart are known to be of pathological significance during Chagas disease (Zacks et al., (2005) An Acad Bras Cienc, 77, 695-715; Gupta et al., (2009) Interdiscip Perspect Infect Dis, 2009, 190354). […] In the previous study the inventors identified 92 proteins that were differentially expressed or oxidized in chagasic plasma. Functional analysis allocated a majority of these proteins to inflammation/immunity and lipid metabolism categories, and to molecular pathways associated with cardiovascular dysfunction, e.g., myocardial infarction, hypertrophy, and fibrosis, and pulmonary embolism and hypertension. Some proteins in chagasic rats treated with PBN and/or BZ were allocated to curative pathways (immune regulation and cardiac remodeling). The 2D-GE results were validated by Western blotting. […] Increased plasma levels of GSN, MYL2, and VIM were directly correlated with the severity of cardiac disease in human chagasic patients. […] These findings have utility in diagnosing disease severity and designing suitable therapy for management of human chagasic patients. […]

O=C(Cn1ccnc1[N+](=O)[O-])NCc1ccccc1 [BZ]
controlling parasite- and oxidative stress-induced pathology [1]: beneficial effects
Spot# 34 Average Normalized Density × 100,000 [2]: 0.37
Spot# 52, 54, 302 Average Normalized Density × 100,000 [2]: 0.60
Spot# 94 Average Normalized Density × 100,000 [2]: 0.55
Spot# 181 Average Normalized Density × 100,000 [2]: 7.53
Spot# 586, 614 Average Normalized Density × 100,000 [2]: 132.20
Spot# 672 Average Normalized Density × 100,000 [2]: 23.29
Spot# 715 Average Normalized Density × 100,000 [2]: 30.96
Spot# 745 Average Normalized Density × 100,000 [2]: 2.30
preventing protein carbonylation [3]: not effective in preventing protein carbonylation
